The values below come from US5475132A, “Antifungal agents based on amides containing a phenyl group” (Rhone-Poulenc Agrochimie, priority 1988, dated 1995).

The assay concerns Phytophthora citrophthora. The experiment in a line: Example B3: action on phytopathogenic soil fungi, growth on agar in Petri dishes. Format: cell-based. The note with it: 120 h, 30 ppm, agar medium, 22° C., 5 days, read-out: inhibition of the development of the fungus.

Take `CCN(C)C(=O)c1cnc(-c2ccccc2)nc1-c1ccc(OC)c(OC)c1` [Compound 415]: the inhibition at 30 ppm was no less than 80%. Under `COCCN(C)C(=O)c1cnc(-c2ccccc2)nc1-c1ccc(OC)c(OC)c1` [Compound 416] stands no less than 80%. The value for `CCN(CC)C(=O)c1cnc(-c2ccc(Cl)c(Cl)c2)nc1-c1ccc(OC)c(OC)c1` [Compound 420] was no less than 80%. The value for `COc1ccc(-c2nc(-c3cccc(C(F)(F)F)c3)ncc2C(=O)N2CCOCC2)cc1OC` [Compound 425] was no less than 80%.

On to `COc1ccc(-c2nc(-c3cccc(C(F)(F)F)c3)ncc2C(=O)O)cc1OC` [Compound 426], for which the inhibition at 30 ppm was no less than 80%. Under `COc1ccc(-c2nc(-c3ccc(Br)cc3)ncc2C(=O)N2CCOCC2)cc1OC` [Compound 427] stands no less than 80%; under `CCN(C)C(=O)c1cnc(-c2cccc(C(F)(F)F)c2)nc1-c1ccc(OC)c(OC)c1` [Compound 428], no less than 80%; under `CCN(CC)C(=O)c1cnc(-c2cccc(C(F)(F)F)c2)nc1-c1ccc(OC)c(OC)c1` [Compound 429], no less than 80%.

Regarding `CCN(CC)C(=O)c1cnc(-c2ccc(Br)cc2)nc1-c1ccc(OC)c(OC)c1` [Compound 430], the inhibition at 30 ppm was no less than 80%. The value for `COc1ccc(-c2nc(Oc3ccc(C)cc3)ncc2C(=O)N2CCOCC2)cc1OC` [Compound 433, 4-(3,4-dimethoxyphenyl)-2-(4-methylphenoxy)-5-morpholinocarbonylpyrimidine] was no less than 80%; that for `COc1ccc(-c2nc(SCc3ccccc3)ncc2C(=O)N2CCOCC2)cc1OC` [Compound 434] was no less than 80%; that for `COc1ccc(-c2nc(SCc3ccc(Cl)cc3)ncc2C(=O)N2CCOCC2)cc1OC` [Compound 435] was no less than 80%. Under `COc1ccc(-c2nc(Sc3ccc(Cl)cc3)ncc2C(=O)N2CCOCC2)cc1OC` [Compound 436] stands no less than 80%; under `COc1ccc(-c2nc(Oc3ccc(Cl)cc3)ncc2C(=O)N2CCOCC2)cc1OC` [Compound 437], no less than 80%; under `COc1ccc(-c2nc(Oc3ccc(Br)cc3)ncc2C(=O)N2CCOCC2)cc1OC` [Compound 438], no less than 80%.

Regarding `COc1ccc(-c2nc(Oc3ccc(F)cc3)ncc2C(=O)N2CCOCC2)cc1OC` [Compound 439], the inhibition at 30 ppm was no less than 80%. Under `COc1ccc(-c2nc(Oc3ccccc3C)ncc2C(=O)N2CCOCC2)cc1OC` [Compound 440] stands no less than 80%. The value for `COc1ccc(-c2nc(Oc3ccc(Cl)c(C)c3)ncc2C(=O)N2CCOCC2)cc1OC` [Compound 441] was no less than 80%; that for `COc1ccc(-c2nc(Oc3ccc(C(F)(F)F)cc3)ncc2C(=O)N2CCOCC2)cc1OC` [Compound 442] was no less than 80%; that for `COc1ccc(-c2nc(Sc3cccc(Cl)c3)ncc2C(=O)N2CCOCC2)cc1OC` [Compound 445] was no less than 80%.

For the molecule `COc1ccc(-c2nc(Sc3ccc(Br)cc3)ncc2C(=O)N2CCOCC2)cc1OC` [Compound 447], the inhibition at 30 ppm was no less than 80%. The value for `COc1ccc(-c2nc(Sc3ccc(F)cc3)ncc2C(=O)N2CCOCC2)cc1OC` [Compound 449] was no less than 80%; that for `COc1ccc(-c2nc(Sc3ccc(Cl)c(Cl)c3)ncc2C(=O)N2CCOCC2)cc1OC` [Compound 450] was no less than 80%; that for `COc1ccc(-c2nc(N3CCCCC3)ncc2C(=O)N2CCOCC2)cc1OC` [Compound 458] was no less than 80%. The value for `COc1ccc(-c2cc(-c3ccccc3)nc(C)c2C(=O)N2CCOCC2)cc1OC` [Compound 505, N-[4-(3,4-dimethoxyphenyl)-2-methyl-6-phenylnicotinoyl]morpholine] was no less than 80%; that for `CCN(C)C(=O)c1c(-c2ccc(OC)c(OC)c2)cc(-c2ccccc2)nc1C` [Compound 506] was no less than 80%. The value for `COCCN(C)C(=O)c1c(-c2ccc(OC)c(OC)c2)cc(-c2ccccc2)nc1C` [Compound 507] was no less than 80%. In the case of `COc1ccc(-c2c(C(=O)N3CCOCC3)cc(-c3ccc(F)cc3)n2C)cc1OC` [Compound 607, 5-(4-fluorophenyl)-2-(3,4-dimethoxyphenyl)-1-methyl-3-(morpholinocarbonyl)pyrrole], the inhibition at 30 ppm was no less than 80%.

Consider `COc1ccc(-c2c(C(=O)N3CCOCC3)cnn2-c2ccc(Cl)cc2)cc1OC` [Compound 608, 2-(4-Chlorophenyl)-3-(3,4-dimethoxyphenyl)-4-(morpholinocarbonyl)pyrazole], for which the inhibition at 30 ppm is no less than 80%. Under `COc1ccc(-c2c(C(=O)N3CCOCC3)cc(-c3ccc(Cl)cc3)n2C)cc1OC` [Compound 619] stands no less than 80%. As to `COc1ccc(-c2c(C(=O)N3CCOCC3)cc(-c3ccccc3)n2C)cc1OC` [Compound 621], the inhibition at 30 ppm is no less than 80%. For the molecule `COc1ccc(-c2nc(C(C)(C)C)ccc2C(=O)N2CCOCC2)cc1OC` [Compound 3110], the inhibition at 30 ppm was no less than 80%.

Turning to `COc1ccc(-c2nc(C=C(C)C)ccc2C(=O)N2CCOCC2)cc1OC` [Compound 3111], the inhibition at 30 ppm was no less than 80%. Consider `COc1ccc(-c2nc(-c3ccsc3)ccc2C(=O)N2CCOCC2)cc1OC` [Compound 3112], for which the inhibition at 30 ppm was no less than 80%.

`COc1ccc(-c2nc(-c3cccs3)ccc2C(=O)N2CCOCC2)cc1OC` [Compound 3113]: the inhibition at 30 ppm is no less than 80%. The value for `COc1ccc(-c2nc(-c3cccc4ccccc34)ccc2C(=O)N2CCOCC2)cc1OC` [Compound 3114] was no less than 80%; that for `COc1ccc(-c2nc(-c3ccc4ccccc4c3)ccc2C(=O)N2CCOCC2)cc1OC` [Compound 3115] was no less than 80%; that for `COc1ccc(-c2nc(-c3ccco3)ccc2C(=O)N2CCOCC2)cc1OC` [Compound 3116] was no less than 80%. The value for `COCCN(C)C(=O)c1ccc(-c2ccsc2)nc1-c1ccc(OC)c(OC)c1` [Compound 3117] was no less than 80%; that for `CCN(C)C(=O)c1ccc(-c2ccsc2)nc1-c1ccc(OC)c(OC)c1` [Compound 3118] was no less than 80%. The value for `CCN(CC)C(=O)c1ccc(-c2ccsc2)nc1-c1ccc(OC)c(OC)c1` [Compound 3119] was no less than 80%.
